# Molecular target: T1, human Edg-1 receptor (Homo sapiens, UniProt P21453)
# T1 construct: FLAG (N); expressed in transfected cells; membrane preparation
# Test: GTP-γ-S assay using human Edg-1 receptors (scintillation proximity assay, CHO Flp-In cell membrane preparation)
# Assay type: biochemical
# Settings: test compound at 10 μM; high control 10 μM S1P regarded as 100% activation; [35S]GTP-γ-S binding, triplicate
# Excerpt: A) GTP-γ-S Assay Using Human Edg-1 Receptors
# In order to determine the Edg-1 receptor activation by the compounds of the invention, a GTP-γ-S (guanosine 5′-[thio]triphosphate) assay for G-protein coupled receptor binding based on the scintillation proximity assay principle was used, employing a cell membrane preparation from a CHO Flp-In cell line which constitutively overexpresses the human Edg-1 receptor.
# The Flp-In™ expression system (Invitrogen, cat. no. K6010-01) allows the generation of stable mammalian cell lines into which the gene of interest has been integrated through homologous recombination at a specific genomic location called Flp Recombination Target (FRT) site by means of a Flp recombinase encoded by the pOG44 expression plasmid. The integration of the pcDNA5/FRT expression construct into the Flp-In host cell line genome results in the transcription of the gene of interest. The stably transfected cells become hygromycin-resistant.
# One day prior to transfection, 200 000 Flp-In-CHO cells were seeded in Ham F-12 medium (Invitrogen, cat. no. 31765) supplemented with 10% fetal calf serum (FCS; Perbio Science, cat. no. SH30068.03) in a 6-well plate and incubated at 37° C./5% CO2 overnight. Using the FuGENE® 6 transfection reagent (Roche, cat. no. 11988387001), cells were cotransfected with the Flp recombinase expression plasmid pOG44 and a modified plasmid additionally containing the edg-1 gene (accession no. NM_001400) termed as pcDNA5-FRT-TO_nFLAG_DEST-EDG-1 with a 9:1 ratio. To obtain the modified pcDNA5-FRT-TO_nFLAG_DEST plasmid, the Invitrogen plasmid pcDNA5/FRT/TO (Invitrogen, cat. no. V6520-20) was adapted to the Gateway® (Invitrogen) cloning system by inserting a Gateway cassette containing attR recombination sites flanking a ccdB gene and a chloramphenicol-resistance gene (Gateway conversion system, Invitrogen, cat. no. 11828-029). In addition a FLAG tag epitope was added before the 5′ att recombination site to allow recombinant expression of N-terminally FLAG-tagged proteins.
# For the transfection of one well, 1.08 μg of pOG44 and 0.12 μg of pcDNA5-FRT-TO_nFLAG_DEST-EDG-1 were mixed to 100 μl of serum-free Ham F-12 medium containing 6 μl of FuGENE® 6 transfection reagent. After 20 min of incubation, the transfection reagent/DNA complex was distributed dropwise on the cells. The cells were incubated for 24 h at 37° C. Then the cells from 3 wells were transferred to a T75 flask (Greiner Cellstar®, cat. no. 658175) containing Ham F-12 medium supplemented with 10% of FCS but without antibiotic and were incubated another 24 h. 48 h after transfection, the medium was replaced by selection medium (Ham F-12 supplemented with 10% of FCS and 300 μg/ml of hygromycin B (Invitrogen, cat. no. 10687-010)). The medium was exchanged every 2 to 3 days until a resistant population of cells had grown. […] After 2 weeks of selection, the cells were transferred into T175 flasks (Greiner Cellstar®, cat. no. 660175) and cultivated for batch production. Cells were harvested from the culture flasks by short treatment (2 to 5 min) with Accutase (PAA, cat. no. L11-007), resuspended in selection medium (see above) and centrifuged at 200×g for 5 min. The cells were resuspended in a mixture of 90% of FCS and 10% of dimethylsulfoxide and stored frozen in liquid nitrogen.
# A membrane preparation was obtained by standard methods from the afore-described CHO Flp-In cell line constitutively overexpressing the human Edg-1 receptor. Briefly, the cryopreserved cells were taken in culture and grown until confluency in T175 cell culture flasks (Becton Dickinson, cat. no. 35 5001). […]
# T1 sequence (P21453 whole entry): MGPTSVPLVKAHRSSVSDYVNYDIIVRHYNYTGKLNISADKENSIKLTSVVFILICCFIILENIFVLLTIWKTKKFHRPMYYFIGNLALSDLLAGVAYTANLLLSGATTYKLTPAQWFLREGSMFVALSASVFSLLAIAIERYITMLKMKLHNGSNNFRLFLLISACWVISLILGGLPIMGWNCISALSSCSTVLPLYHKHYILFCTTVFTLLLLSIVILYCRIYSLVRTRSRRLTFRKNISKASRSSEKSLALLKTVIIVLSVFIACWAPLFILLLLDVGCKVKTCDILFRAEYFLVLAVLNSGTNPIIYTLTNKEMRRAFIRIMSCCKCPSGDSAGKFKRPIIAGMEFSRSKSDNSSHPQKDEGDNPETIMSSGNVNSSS
row,Structure (SMILES),% Activation (Edg-1 receptor activation in percent of the activation by 10 μM S1P)
1,"CCCOc1nc(Oc2cccc(F)c2)nc2oc(-c3cc(C)c(OCC(=O)O)c(C)c3)nc12 [Example 34, {4-[5-(3-fiuorophenoxy)-7-propoxy-oxazolo[5,4-d]pyrimidin-2-yl]-2,6-dimethyl-phenoxy}-acetic acid]",48%
2,"CCCOc1nc(OC(C)CC(F)(F)F)nc2oc(-c3cc(C)c(OCC(=O)O)c(C)c3)nc12 (stereo not shown) [Example 21, {2,6-dimethyl-4-[7-propoxy-5-(3,3,3-trifluoro-1-methyl-propoxy)-oxazolo[5,4--d]pyrimidin-2-yl]-phenoxy}-acetic acid]",81%
3,"CCCOc1nc(Oc2ccc(F)cc2)nc2oc(-c3cc(C)c(OCC(=O)O)c(C)c3)nc12 [Example 35, {4-[5-(4-fiuorophenoxy)-7-propoxy-oxazolo[5,4-d]pyrimidin-2-yl]-2,6-dimethylphenoxy}-acetic acid]",79%

# Same assay, conditions: test compound at 10 μM; high control 10 μM S1P regarded as 100% activation; [35S]GTP-γ-S binding, triplicate; read-out: % Activation (Edg-1 receptor activation in percent of the activation by 10 μM S1P)
row,Structure (SMILES),activation at 10 µM
1,"CCOc1nc(Oc2ccccc2F)nc2oc(-c3cc(C)c(OCC(=O)O)c(C)c3)nc12 [Example 26, {4-[7-ethoxy-5-(2-fluorophenoxy)-oxazolo[5,4-d]pyrimidin-2-yl]-2,6-dimethyl-phenoxy}-acetic acid]",127%
2,"CCCOc1nc(OCC2CCCC2)nc2oc(-c3cc(C)c(OCC(=O)O)c(C)c3)nc12 [Example 18, [4-(5-cyclopentylmethoxy-7-propoxy-oxazolo[5,4-d]pyrimidin-2-yl)-2,6-dimethyl-phenoxy]-acetic acid]",83%
3,"CCCOc1nc(Oc2cc(C)cc(F)c2)nc2oc(-c3cc(C)c(OCC(=O)O)c(C)c3)nc12 [Example 42, {4-[5-(3-fluoro-5-methylphenoxy)-7-propoxy-oxazolo[5,4-d]pyrimidin-2-yl]-2,6-dimethyl-phenoxy}-acetic acid]",66%
4,"CCCOc1nc(Oc2ccc(F)c(F)c2)nc2oc(-c3cc(C)c(OCC(=O)O)c(C)c3)nc12 [Example 51, {4-[5-(3,4-difluorophenoxy)-7-propoxy-oxazolo[5,4-d]pyrimidin-2-yl]-2,6-dimethylphenoxy}-acetic acid]",49%
5,"CCCOc1nc(Oc2cccc(Cl)c2C)nc2oc(-c3cc(C)c(OCC(=O)O)c(C)c3)nc12 [Example 54, {4-[5-(3-chloro-2-methylphenoxy)-7-propoxy-oxazolo[5,4-d]pyrimidin-2-yl]-2,6-dimethyl-phenoxy}-acetic acid]",107%
6,"CCCOc1nc(Oc2ccccc2OC(F)(F)F)nc2oc(-c3cc(C)c(OCC(=O)O)c(C)c3)nc12 [Example 71, {2,6-dimethyl-4-[7-propoxy-5-(2-trifluoromethoxyphenoxy)-oxazolo[5,4-d]pyrimidin-2-yl]-phenoxy}-acetic acid]",62%
7,"CCCOc1nc(Oc2ccc(F)c(Cl)c2)nc2oc(-c3cc(C)c(OCC(=O)O)c(C)c3)nc12 [Example 62, {4-[5-(3-chloro-4-fluorophenoxy)-7-propoxy-oxazolo[5,4-d]pyrimidin-2-yl]-2,6-dimethylphenoxy}-acetic acid]",56%
8,"CCCOc1nc(Oc2cccc(C(F)(F)F)c2)nc2oc(-c3cc(C)c(OCC(=O)O)c(C)c3)nc12 [Example 67, {2,6-dimethyl-4-[7-propoxy-5-(3-trifluoromethylphenoxy)-oxazolo[5,4-d]pyrimidin-2-yl]-phenoxy}-acetic acid]",82%
9,"CCOc1nc(Oc2cccc(F)c2)nc2oc(-c3cc(C)c(OCC(=O)O)c(C)c3)nc12 [Example 25, {4-[7-ethoxy-5-(3-fluorophenoxy)-oxazolo[5,4-d]pyrimidin-2-yl]-2,6-dimethyl-phenoxy}-acetic acid]",84%
10,"CCCOc1nc(OCC2CCC2)nc2oc(-c3cc(C)c(OCC(=O)O)c(C)c3)nc12 [Example 13, [4-(5-cyclobutylmethoxy-7-propoxy-oxazolo[5,4-d]pyrimidin-2-yl)-2,6-dimethyl-phenoxy]-acetic acid]",99%
11,"CCCOc1nc(OCCC)c2nc(-c3cc(C)c(OCC(=O)O)c(C)c3)oc2n1 [Example 15, [4-(5,7-dipropoxy-oxazolo[5,4-d]pyrimidin-2-yl)-2,6-dimethyl-phenoxy]-acetic acid]",98%
12,"CCCOc1nc(Oc2ccc(Cl)cc2F)nc2oc(-c3cc(C)c(OCC(=O)O)c(C)c3)nc12 [Example 59, {4-[5-(4-chloro-2-fluorophenoxy)-7-propoxy-oxazolo[5,4-d]pyrimidin-2-yl]-2,6-dimethyl-phenoxy}-acetic acid]",72%
13,"CCCOc1nc(Oc2ccc(C)c(Cl)c2)nc2oc(-c3cc(C)c(OCC(=O)O)c(C)c3)nc12 [Example 55, {4-[5-(3-chloro-4-methylphenoxy)-7-propoxy-oxazolo[5,4-d]pyrimidin-2-yl]-2,6-dimethylphenoxy}-acetic acid]",66%
14,"CCCOc1nc(OCC)nc2oc(-c3cc(C)c(OCC(=O)O)c(C)c3)nc12 [Example 17, [4-(5-ethoxy-7-propoxy-oxazolo[5,4-d]pyrimidin-2-yl)-2,6-dimethyl-phenoxy]-acetic acid]",70%
15,"CCCOc1nc(OCCC(F)(F)F)nc2oc(-c3cc(C)c(OCC(=O)O)c(C)c3)nc12 [Example 16, {2,6-dimethyl-4-[7-propoxy-5-(3,3,3-trifluoro-propoxy)-oxazolo[5,4-d]pyrimidin-2-yl]-phenoxy}-acetic acid]",107%
16,"CCCOc1nc(Oc2ccc(Cl)cc2)nc2oc(-c3cc(C)c(OCC(=O)O)c(C)c3)nc12 [Example 46, {4-[5-(4-chlorophenoxy)-7-propoxy-oxazolo[5,4-d]pyrimidin-2-yl]-2,6-dimethylphenoxy}-acetic acid]",59%
17,"CCCOc1nc(Oc2cc(F)ccc2F)nc2oc(-c3cc(C)c(OCC(=O)O)c(C)c3)nc12 [Example 1, {4-[5-(2,5-Difluoro-phenoxy)-7-propoxy-oxazolo[5,4-d]pyrimidin-2-yl]-2,6-dimethyl-phenoxy}-acetic acid]",100%
18,"CCCOc1nc(Oc2ccccc2C(F)(F)F)nc2oc(-c3cc(C)c(OCC(=O)O)c(C)c3)nc12 [Example 69, {2,6-dimethyl-4-[7-propoxy-5-(2-trifluoromethylphenoxy)-oxazolo[5,4-d]pyrimidin-2-yl]-phenoxy}-acetic acid]",67%
19,"CCCOc1nc(Oc2ccc(C)nc2)nc2oc(-c3cc(C)c(OCC(=O)O)c(C)c3)nc12 [Example 32, {2,6-dimethyl-4-[5-(6-methylpyridin-3-yloxy)-7-propoxy-oxazolo[5,4-d]pyrimidin-2-yl]-phenoxy}-acetic acid]",114%
20,"CCCOc1nc(Oc2ccc3ccccc3c2)nc2oc(-c3cc(C)c(OCC(=O)O)c(C)c3)nc12 [Example 57, {2,6-dimethyl-4-[5-(naphthalen-2-yloxy)-7-propoxy-oxazolo[5,4-d]pyrimidin-2-yl]-phenoxy}-acetic acid]",58%
21,"CCCOc1nc(Oc2cnsn2)nc2oc(-c3cc(C)c(OCC(=O)O)c(C)c3)nc12 [Example 28, {2,6-dimethyl-4-[7-propoxy-5-([1,2,5]thiadiazol-3-yloxy)-oxazolo[5,4-d]pyrimidin-2-yl]-phenoxy}-acetic acid]",83%
22,"CCCOc1nc(Oc2cccnc2)nc2oc(-c3cc(C)c(OCC(=O)O)c(C)c3)nc12 [Example 7, {2,6-dimethyl-4-[7-propoxy-5-(pyridin-3-yloxy)-oxazolo[5,4-d]pyrimidin-2-yl]-phenoxy}-acetic acid]",87%

# Source: US8748436B2, “Carboxylic acid derivatives having a 2,5,7-substituted oxazolopyrimidine ring” (Sanofi, priority 2010, dated 2014)
